Measured values taken from patent US8445207B2, “Genes based on thalidomide, valproic acid and methotrexate treatment for screening of drug inducing teratogenicity and screening method using thereof” (priority 2009, dated 2013).

Columns and labels:
[1] = tested on: JEG-3 (human placental choriocarcinoma cell line); test: Cytotoxicity test (MTT assay) in JEG-3
[2] = tested on: JEG-3 (human placental choriocarcinoma cell line); test: Oligo microarray gene expression in drug-treated JEG-3 (Cy5 treated / Cy3 control); type: cell-based
Protocol: Thalidomide, valproic acid, and methotrexate were treated to human placental choriocarcinoma cell line at the concentrations determined above (Inhibition concentration: the concentration that can kill approximately 30% of the total cells, that is the concentration of 70% viability, IC30). mRNA was extracted from the drug treated cell line, followed by synthesis of cDNA which was labeled with Cy5. The non-treated control was labeled with Cy3. The fluorescence labeled cDNA was hybridized with 41K (thalidomide), 44K (valproic acid, methotrexate) human whole genome oligomicroarray chips (Agilent, USA), followed by fluorescent image scanning to analyze gene expression patterns (see FIG. 4). Volcano Plot of each substance was also attached. Y axis indicates probability (generally converted by −log 10). X axis indicates differential expression, which is presented by log-ratio.
Total RNA was separated from the treated cell by using trizol reagent (Invitrogen Life Technologies, USA) according to the manufacture's instructions, followed by purification using RNeasy mini kit (Qiagen, USA). Genomic DNA was eliminated during RNA purification using RNase-free DNase set (Qiagen, USA).
30 μg of the total RNA obtained above and 2 μg (1 μg/μl) of oligo (dT) primer were mixed, followed by reaction at 65° C. for 10 minutes. Annealing was performed in ice right after the reaction. Reagents were prepared as shown in Table 1 for reverse transcription of the annealed RNA.
The total RNA separated from the control group JEG-3 cells was labeled with Cy3-dUTP (green) and the total RNA separated from the experiment group JEG-3 cells treated with thalidomide, valproic acid and methotrexate was labeled with Cy5-dUTP (red). At this time, the two samples were mixed and purified by Microcon YM-30 column (Millipore, USA).
Hybridization and washing were performed by the manufacturer's (GenoCheck, Korea) instructions. Particularly, hybridization was performed in a 62° C. oven for 12 hours. As a DNA microarray chip, 44 k whole human genome oligo microarray (Agilent, USA) was used. After washing (2 minutes with 2×SSC/0.1% SDS, three minutes with 1×SSC, 2 minutes with 0.2×SSC), the slide was dried by centrifugation at 800 rpm for 3 minutes.
Hybridization image on the slide was scanned with Genepix 4000B (Axon Instruments, USA). Fluorescence image of the chip on which non-hybridized genes had been washed out was obtained by using laser fluorescence scanner. Green fluorescence image indicates the activity of gene specifically expressed in the control group and red fluorescence image indicates the activity of gene specifically expressed in the experimental group. […] Scanned image was analyzed by using GenePix 4.1 software (Axon Instruments, USA) to calculate gene expression rate.

SMILES: CN(Cc1cnc2nc(N)nc(N)c2n1)c1ccc(C(=O)N[C@@H](CCC(=O)O)C(=O)O)cc1 [MTX, methotrexate]
- cytotoxicity to JEG-3 ([1]; FIGS. 1, 2 and 3): confirmed to have toxicity
- IC30 (concentration shows 70% survival rate) ([1]; JEG-3, 48 hours, MTT, FIG. 1): 4.570 mM
- cDNA microarray (Cy3/Cy5 ratio), KIAA0310 ([2]; GenBank AB002308): 2.29
- cDNA microarray (Cy3/Cy5 ratio), ATP10B ([2]; GenBank AB018258): 4.95
- cDNA microarray (Cy3/Cy5 ratio), TTF2 ([2]; GenBank AB209845): 1.94
- cDNA microarray (Cy3/Cy5 ratio), TncRNA ([2]; GenBank AF001893): 2.11
- cDNA microarray (Cy3/Cy5 ratio), C4orf19 ([2]; GenBank AK001879): 4.69
- cDNA microarray (Cy3/Cy5 ratio), CYP19A1 ([2]; GenBank AK023571): 2.72
- cDNA microarray (Cy3/Cy5 ratio), SLC40A1 ([2]; GenBank AK023574): 3.06
- cDNA microarray (Cy3/Cy5 ratio), ABTB2 ([2]; GenBank AK095632): 4.65
- cDNA microarray (Cy3/Cy5 ratio), TUBB3 ([2]; GenBank AK122757): 7.85
- cDNA microarray (Cy3/Cy5 ratio), MGC27016 ([2]; GenBank AK125877): 1.52
- cDNA microarray (Cy3/Cy5 ratio), GLCCI1 ([2]; GenBank AK126731): 2.84
- cDNA microarray (Cy3/Cy5 ratio), TFCP2L4 ([2]; GenBank BC036890): 4.11
- cDNA microarray (Cy3/Cy5 ratio), RGS2 ([2]; GenBank BC042755): 9.24
- cDNA microarray (Cy3/Cy5 ratio), SIAT7A ([2]; GenBank BC063830): 15.01
- cDNA microarray (Cy3/Cy5 ratio), B7-H4 ([2]; GenBank BX648021): 0.27
- cDNA microarray (Cy3/Cy5 ratio), COBLL1 ([2]; GenBank BX649112): 4.89
- cDNA microarray (Cy3/Cy5 ratio), CGA ([2]; GenBank NM_000735): 8.07
- cDNA microarray (Cy3/Cy5 ratio), PARP1 ([2]; GenBank NM_001618): 0.6
- cDNA microarray (Cy3/Cy5 ratio), SERPINB9 ([2]; GenBank NM_004155): 4.04
- cDNA microarray (Cy3/Cy5 ratio), ST8SIA4 ([2]; GenBank NM_005668): 1.82
- cDNA microarray (Cy5 treated / Cy3 control ratio), ABL1 ([2]; GenBank NM_007313): 0.49
- cDNA microarray (Cy3/Cy5 ratio), GRLF1 ([2]; GenBank NM_024342): 0.29
- cDNA microarray (Cy3/Cy5 ratio), LGP1 ([2]; GenBank NM_032484): 0.49
- cDNA microarray (Cy3/Cy5 ratio), NCOA3 ([2]; GenBank NM_181659): 2.12
- cDNA microarray (Cy3/Cy5 ratio), SR140 ([2]; GenBank XM_031553): 0.66
- cDNA microarray (Cy3/Cy5 ratio), SLC7A8 ([2]; GenBank Y18483): 3.76
- Ratio of intermediate value, NLGN1 ([2]; Genbank AB028993, drug at IC30): 0.25
- Ratio of intermediate value, VARS2L ([2]; Genbank AB067472, drug at IC30): 0.46
- Ratio of intermediate value, PPAT ([2]; Genbank AB209246, drug at IC30): 0.44
- Ratio of intermediate value, SEMA3B ([2]; Genbank AB209322, drug at IC30): 0.48
- Ratio of intermediate value, SCLY ([2]; Genbank AB209458, drug at IC30): 0.41
- Ratio of intermediate value, C8orf1 ([2]; Genbank AF061326, drug at IC30): 0.46
- Ratio of intermediate value, KUB3 ([2]; Genbank AF078164, drug at IC30): 0.45
- Ratio of intermediate value, GTF2H2 ([2]; Genbank AF078847, drug at IC30): 0.44
- Ratio of intermediate value, PARD3 ([2]; Genbank AF196185, drug at IC30): 0.28
- Ratio of intermediate value, Homo sapiens cDNA FLJ12651 fis, clone NT2RM4002062 ([2]; Genbank AK022713, drug at IC30): 0.21
- Ratio of intermediate value, BCAT2 ([2]; Genbank AK023909, NM_001190, drug at IC30): 0.35
- Ratio of intermediate value, ASS ([2]; Genbank AK027126, drug at IC30): 0.19
- Ratio of intermediate value, SHMT2 ([2]; Genbank AK055053, drug at IC30): 0.42
- Ratio of intermediate value, FLJ23441 ([2]; Genbank AK056980, drug at IC30): 0.41
- Ratio of intermediate value, RUVBL2 ([2]; Genbank AK057498, drug at IC30): 0.42
- Ratio of intermediate value, ERCC2 ([2]; Genbank AK092872, drug at IC30): 0.40
- Ratio of intermediate value, PHGDH ([2]; Genbank AK093306, drug at IC30): 0.16
- Ratio of intermediate value, GLUD1 ([2]; Genbank AK122685, drug at IC30): 0.34
- Ratio of intermediate value, HMGB1 ([2]; Genbank AK122825, drug at IC30): 0.37
- Ratio of intermediate value, YARS ([2]; Genbank AK125213, drug at IC30): 0.38
- Ratio of intermediate value, FANCF ([2]; Genbank BC005077, NM_022725, drug at IC30): 0.40
- Ratio of intermediate value, C9orf103 ([2]; Genbank BC036421, drug at IC30): 0.38
- Ratio of intermediate value, CAD ([2]; Genbank BC065510, drug at IC30): 0.40
- Ratio of intermediate value, GRLF1 ([2]; Genbank BI494022, NM_024342, drug at IC30): 0.29
- Ratio of intermediate value, CIB1 ([2]; Genbank BM467105, drug at IC30): 0.44
- Ratio of intermediate value, RAD51L1 ([2]; Genbank BX248766, drug at IC30): 0.43
- Ratio of intermediate value, NBS1 ([2]; Genbank BX640816, drug at IC30): 0.31
- Ratio of intermediate value, B7-H4 ([2]; Genbank BX648021, drug at IC30): 0.27
- Ratio of intermediate value, APEX1 ([2]; Genbank CR611116, drug at IC30): 0.33
- Ratio of intermediate value, GNAO1 ([2]; Genbank CR936770, drug at IC30): 0.49
- Ratio of intermediate value, DCLRE1A ([2]; Genbank D42045, drug at IC30): 0.43
